Literature values in patent publication US20180009934A1, “HIGH […] […] RESINS” (priority 2016, published 2018).

Conditions: monomer property, Table 1; species and route not given

C=Cc1ccccc1 [STYRENE, styrene]
Toxicity LD50: >2000 mg/kg

C=Cc1ccc(C(C)(C)C)cc1 [Monomer 1, 4-tert butyl styrene]
Toxicity LD50: >2000 mg/kg
